The results in this text go back to patent publication US8067603B2 (priority 2003, dated 2011).

Several values for one entry are separate records, joined by “and”; a condition that tells them apart may be missing. Identical values can stand only once.

In experiment [1] the test system is Male Wistar rats. Particulars: rat, in vivo.
Experiment [2] relates to rats. The following applies: single i.v. dose 10 minutes before agonist: J-113397 1 mg/kg, naloxone 2 mg/kg.

For `CN1CC[C@]23c4c5ccc(O)c4O[C@H]2[C@@H](O)C=C[C@H]3[C@H]1C5` [Morphine, morphine], in experiment [1] (ip), the “effect on food intake versus the vehicle treated group” value is “dose-dependent increase in food-intake” and the “increase in food intake: antagonism by the opiate receptor antagonist naloxone” value is recorded as “antagonized”.

On to `C=CCN1CC[C@]23c4c5ccc(O)c4O[C@H]2C(=O)CC[C@@]3(O)[C@H]1C5` [naloxone], for which, in experiment [1], the “Mean ± S.E.M. food intake 120 min after ligand administration” value is 0.09 ± 0.09 g and 0.05 ± 0.001 g. Also, the “effect on food intake versus the vehicle treated group” value in experiment [1] (ip) is on record as “no effect on food intake”. Also, in experiment [2], the “effect on the nociceptin-induced decrease in blood pressure” value was “without effect”.
